Assay [1] addresses T1, androgen receptor (AR-LBD) (Rattus norvegicus, UniProt P15207).
T1 construct: 5 μL of 2×AR-LBD/Fluoromone AL Red Complex contained in the kit; purchased Invitrogen
T1 sequence (P15207 651-882 limits assumed): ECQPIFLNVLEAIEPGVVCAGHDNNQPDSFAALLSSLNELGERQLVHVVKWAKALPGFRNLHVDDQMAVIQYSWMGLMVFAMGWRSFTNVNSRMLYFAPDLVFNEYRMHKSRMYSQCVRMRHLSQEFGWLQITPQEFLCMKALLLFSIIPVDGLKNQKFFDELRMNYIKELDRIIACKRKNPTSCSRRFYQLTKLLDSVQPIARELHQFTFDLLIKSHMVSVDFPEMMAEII
As to the kind of experiment: Evaluation of androgen receptor affinity (PolarScreen Androgen Receptor Competitor Assay Kit, Red; fluorescence polarization). To be noted: 22° C. for 5 hours, relative to binding rate of 1 μM DHT, read-out: AR affinity (pEC50) (converted). In a few lines: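 Duplicate wells of test compound were mixed with the kit's rat AR-LBD–Fluoromone AL Red tracer complex and left 5 hours at 22 °C before polarization was read. A 4-parameter fit gave pEC50, with binding rate referenced to 1 μM dihydrotestosterone.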

For assay [2], the target named is T2, human androgen receptor (Homo sapiens, UniProt P10275).
T2 construct: expressed in transfected cells; host or cells: HEK293
T2 sequence (P10275 1-920): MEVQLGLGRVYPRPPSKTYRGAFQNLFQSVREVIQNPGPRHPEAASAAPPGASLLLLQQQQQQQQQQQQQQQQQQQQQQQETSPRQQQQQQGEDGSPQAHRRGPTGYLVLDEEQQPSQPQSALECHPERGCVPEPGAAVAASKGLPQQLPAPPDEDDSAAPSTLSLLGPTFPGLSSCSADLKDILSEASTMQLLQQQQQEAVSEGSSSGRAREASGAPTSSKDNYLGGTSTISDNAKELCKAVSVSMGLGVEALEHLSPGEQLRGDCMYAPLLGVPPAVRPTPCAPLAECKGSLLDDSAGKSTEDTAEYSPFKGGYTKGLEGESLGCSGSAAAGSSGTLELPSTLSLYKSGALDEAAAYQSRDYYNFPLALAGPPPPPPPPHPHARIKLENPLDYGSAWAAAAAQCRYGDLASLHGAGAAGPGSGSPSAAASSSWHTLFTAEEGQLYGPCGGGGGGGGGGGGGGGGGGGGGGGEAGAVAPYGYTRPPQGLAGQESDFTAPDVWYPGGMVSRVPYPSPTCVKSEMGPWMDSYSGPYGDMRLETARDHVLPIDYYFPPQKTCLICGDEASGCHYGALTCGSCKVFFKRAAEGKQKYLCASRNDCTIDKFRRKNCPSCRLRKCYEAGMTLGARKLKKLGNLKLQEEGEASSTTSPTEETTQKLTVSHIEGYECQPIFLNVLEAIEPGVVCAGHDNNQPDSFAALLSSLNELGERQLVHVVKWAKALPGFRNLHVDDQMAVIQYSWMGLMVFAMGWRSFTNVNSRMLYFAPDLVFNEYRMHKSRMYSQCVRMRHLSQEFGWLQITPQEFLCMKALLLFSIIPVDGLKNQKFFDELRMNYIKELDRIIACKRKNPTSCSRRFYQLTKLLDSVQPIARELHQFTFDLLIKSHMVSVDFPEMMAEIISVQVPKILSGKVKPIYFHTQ
As to the kind of experiment: Reporter assay of an androgen receptor responsive sequence (luciferase, transiently transfected HEK293 cells). It is filed as cell-based. Conditions: 24 hours incubation, relative to activity of 100 nM DHT, read-out: AR transcriptive activity (pEC50) (converted). The procedure, abridged:
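Agonism scored as pEC50, fitted by 4-parameter curve against the response to 100 nM DHT, from dual-luciferase readout after 24 h compound treatment. Cells were HEK293 co-transfected (3 h) with human AR expression vector, androgen-responsive firefly reporter and Renilla control, in charcoal-stripped serum.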
(A reporter such as luciferase makes a cellular process visible.)

For the compound `CS(=O)(=O)NC(=O)c1nc(N(Cc2cccc(Cl)c2)c2ccc(C#N)cc2)sc1Cl` [Example 268, 5-chloro-2-[N-[(3-chlorophenyl)methyl]-4-cyano-anilino]-N-methylsulfonyl-thiazole-4-carboxamide], the EC50 in assay [1] was 50.1 nM; in assay [2], 63.1 nM.
For `Cc1sc(N(CCc2cccnc2)Cc2ccc(Cl)cc2)nc1C(=O)NS(C)(=O)=O` [Compound 488, 2-[(4-chlorophenyl)methyl-[2-(3-pyridyl)ethyl]amino]-5-methyl-N-methylsulfonyl-thiazole-4-carboxamide], in that order: more than 2000 nM and more than 10000 nM.
On to `Cc1sc(N(CCc2ccc(C#N)cc2)Cc2ccc(OC(F)(F)F)cc2)nc1C(=O)NS(=O)(=O)Cc1cccnc1` [Compound 324, 2-[2-(4-cyanophenyl)ethyl-[[4-(trifluoromethoxy)phenyl]methyl]amino]-5-methyl-N-(3-pyridylmethylsulfonyl)thiazole-4-carboxamide], for which the values for the EC50 in assay [1] and in assay [2] were 20 nM and 100 nM, respectively.
For the compound `COCCCS(=O)(=O)NC(=O)c1nc(N(Cc2ccc3ncsc3c2)c2ccc(C#N)cc2)sc1C` [Example 195, 2-[N-(1,3-benzothiazol-6-ylmethyl)-4-cyano-anilino]-N-(3-methoxypropylsulfonyl)-5-methyl-thiazole-4-carboxamide], the EC50 in assay [1] is 158 nM; in assay [2], 126 nM.
For `Cc1sc(N(Cc2cccc(CO)c2)c2ccc(C#N)cc2)nc1C(=O)NS(C)(=O)=O` [Compound 6, 2-[4-cyano-N-[[3-(hydroxymethyl)phenyl]methyl]anilino]-5-methyl-N-methylsulfonyl-thiazole-4-carboxamide], in that order: 200 nM and 316 nM.
For `COCCCS(=O)(=O)NC(=O)c1nc(N(Cc2ccc(C(F)(F)F)nc2)c2ccc(C#N)cc2)sc1C1CC1` [Compound 663, 2-[4-cyano-N-[[6-(trifluoromethyl)-3-pyridyl]methyl]anilino]-5-cyclopropyl-N-(3-methoxypropylsulfonyl)thiazole-4-carboxamide], in that order: 251 nM and more than 10000 nM.
For the compound `CS(=O)(=O)NC(=O)c1nc(N(Cc2ccccc2OC(F)F)c2ccc(C#N)cc2)sc1Br` [Example 254, 5-bromo-2-[4-cyano-N-[[2-(difluoromethoxy)phenyl]methyl]anilino]-N-methylsulfonyl-thiazole-4-carboxamide], the results for the EC50 in assay [1] and in assay [2] were 39.8 nM and 158 nM, respectively.
On to `Cc1sc(N(Cc2ccsc2)c2ccc(C#N)cc2)nc1C(=O)NS(C)(=O)=O` [Compound 85, 2-[4-cyano-N-(3-thienylmethyl)anilino]-5-methyl-N-methylsulfonyl-thiazole-4-carboxamide], for which the EC50 in assay [1] was 200 nM; in assay [2] it was 316 nM.
Take `Cc1oc(N(Cc2cccc(OC(F)(F)F)c2)c2ccc(C#N)cc2)nc1C(=O)NS(C)(=O)=O` [Compound 613, 2-[4-cyano-N-[[3-(trifluoromethoxy)phenyl]methyl]anilino]-5-methyl-N-methylsulfonyl-oxazole-4-carboxamide]: the EC50 in assay [1] is 25.1 nM; in assay [2], more than 10000 nM.
For the compound `Cc1sc(N(Cc2ccc(F)cc2Br)c2ccc(C#N)cc2)nc1C(=O)NS(C)(=O)=O` [Example 177, 2-[N-[(2-bromo-4-fluoro-phenyl)methyl]-4-cyano-anilino]-5-methyl-N-methylsulfonyl-thiazole-4-carboxamide], the EC50 in assay [1] is 79.4 nM; in assay [2], 501 nM.
The corresponding values for `CCS(=O)(=O)NC(=O)c1nc(N(CCc2ccc(C#N)cc2)Cc2ccc(OC(F)(F)F)cc2)sc1C` [Compound 726, 2-[2-(4-cyanophenyl)ethyl-[[4-(trifluoromethoxy)phenyl]methyl]amino]-N-ethylsulfonyl-5-methyl-thiazole-4-carboxamide] are 31.6 nM and 1000 nM.
For `Cc1sc(N(Cc2ccc(C(F)F)cc2)c2ccc(C#N)cc2)nc1C(=O)NS(C)(=O)=O` [Compound 94, 2-[4-cyano-N-[[4-(difluoromethyl)phenyl]methyl]anilino]-5-methyl-N-methylsulfonyl-thiazole-4-carboxamide], in that order: 39.8 nM and 25.1 nM.
Consider `Cc1sc(N(Cc2ccccc2)c2ccc3ncccc3c2)nc1C(=O)NS(C)(=O)=O` [Compound 54, 2-[benzyl(6-quinolyl)amino]-5-methyl-N-methylsulfonyl-thiazole-4-carboxamide], for which the EC50 in assay [1] was 398 nM; in assay [2], 1580 nM.
The corresponding values for `Cc1sc(N(CCc2ccc(Cl)cc2)Cc2ccc(Cl)cc2)nc1C(=O)NS(=O)(=O)C(F)(F)F` [Compound 696, 2-[2-(4-chlorophenyl)ethyl-[(4-chlorophenyl)methyl]amino]-5-methyl-N-(trifluoromethylsulfonyl)thiazole-4-carboxamide] are 200 nM and 631 nM.
In the case of `Cc1sc(N(Cc2ccccc2SC(F)F)c2ccc(C#N)cc2)nc1C(=O)NS(C)(=O)=O` [Compound 79, 2-[4-cyano-N-[[2-(difluoromethylsulfanyl)phenyl]methyl]anilino]-5-methyl-N-methylsulfonyl-thiazole-4-carboxamide], the EC50 was 15.8 nM in assay [1] and 50.1 nM in assay [2].
The corresponding values for `COc1cccc(CN(c2ccc(C#N)cc2)c2nc(C(=O)NS(C)(=O)=O)c(C)s2)n1` [Compound 491, 2-[4-cyano-N-[(6-methox-2-pyridyl)methyl]anilino]-5-methyl-N-methylsulfonyl-thiazole-4-carboxamide] are 100 nM and 316 nM.
Take `Cc1sc(N(Cc2ccc3nonc3c2)c2ccc(C#N)cc2)nc1C(=O)NS(C)(=O)=O` [Compound 361, 2-[N-(2,1,3-benzoxadiazol-5-ylmethyl)-4-cyano-anilino]-5-methyl-N-methylsulfonyl-thiazole-4-carboxamide]: the EC50 in assay [1] is 39.8 nM; in assay [2], 631 nM.
The corresponding values for `Cc1sc(N(Cc2ccc(C(F)(F)F)cc2)c2ccc(C#N)cc2)nc1C(=O)NS(C)(=O)=O` [Compound 46, 2-[4-cyano-N-[[4-(trifluoromethyl)phenyl]methyl]anilino]-5-methyl-N-methylsulfonyl-thiazole-4-carboxamide] are 31.6 nM and 31.6 nM.
For `Cc1sc(N(Cc2ccc3ncccc3c2)c2ccc(C#N)cc2)nc1C(=O)NS(C)(=O)=O` [Compound 403, 2-[4-cyano-N-(6-quinolylmethyl)anilino]-5-methyl-N-methylsulfonyl-thiazole-4-carboxamide], in that order: 251 nM and 251 nM.
Regarding `Cc1sc(N(CC2CCCCCC2)c2ccc(C#N)cc2)nc1C(=O)NS(C)(=O)=O` [Compound 365, 2-[4-cyano-N-(cycloheptylmethyl)anilino]-5-methyl-N-methylsulfonyl-thiazole-4-carboxamide], the EC50 is 25.1 nM in assay [1] and 631 nM in assay [2].
For `Cc1sc(N(CCOCc2ccccc2)c2ccc(C#N)cc2)nc1C(=O)NS(C)(=O)=O` [Compound 367, 2-[N-(2-benzyloxyethyl)-4-cyano-anilino]-5-methyl-N-methylsulfonyl-thiazole-4-carboxamide], in that order: 158 nM and more than 10000 nM.
As for `Cc1sc(N(Cc2cccc(OC(C)C)c2)c2ccc(C#N)cc2)nc1C(=O)NS(C)(=O)=O` [Compound 585, 2-[4-cyano-N-[(3-isopropoxyphenyl)methyl]anilino]-5-methyl-N-methylsulfonyl-thiazole-4-carboxamide], the figures for the EC50 in assay [1] and in assay [2] were 79.4 nM and 501 nM, respectively.
In the case of `CCS(=O)(=O)NC(=O)c1nc(N(CCC2CCCCC2)Cc2ccc(Cl)cc2)sc1C` [Compound 729, 2-[(4-chlorophenyl)methyl-(2-cyclohexylethyl)amino]-N-ethylsulfonyl-5-methyl-thiazole-4-carboxamide], the EC50 in assay [1] was 126 nM; in assay [2], 5010 nM.

For the origin of these results see US10689354B2, “Aminoazole derivative” (Teijin Pharma Limited, priority 2015, dated 2020).
